# Publication PMC12056667 (Chemical Science, 2025)
# Like-named read-outs stand apart in the source and are kept apart here.
# Experiments:
# [1] = biological target: T1, Tet(X4) (Escherichia coli, UniProt A0A3T0V9Y5); assay: FP competitive displacement of probe 6; assay type: binding; conditions: for IC50: 25 nM 6, 40 nM Tet(X4), 5 mM MgCl2, 1 μM FAD, 100 mM Tris pH 7.0, 0.01% Triton X-100; for displacement of probe 6 / competitive binding (in words): up to a maximum concentration of 100 μM
# Experimental: A 2× solution containing 80 nM Tet(X4), 2 μM FAD and 10 mM MgCl2 in the assay buffer was dispensed into the first 22 columns of a 384-well black, non-binding microtiter plate (Greiner Bio-One), 12.5 μL per well, using a microplate reagent dispenser. A solution of 2 μM FAD and 10 mM MgCl2 in the assay buffer was dispensed into the remaining columns to serve as a no enzyme control. A 3-fold, 10-point dilution series of substrates and inhibitors was made in DMSO in a V-bottom 96-well plate (Greiner Bio-One) with a highest concentration of 5 mM or 0.5 mM. Into one column was added DMSO with no inhibitor or substrate, to serve as a positive control. Tigecycline was included as a reference on every plate to ensure reproducibility. 0.5 μL of each dilution was transferred in quadruplicate to the 384-well plate containing enzyme solution using a CyBi-Well liquid-handling robot (CyBio). A solution of 50 nM 6 in the assay buffer was then dispensed, with 12.5 μL per well. The plate was briefly centrifuged (1000 rpm), then incubated at ambient temperature for 30 min prior to measuring the FP. Data points were normalised between the positive and negative controls. Normalised % response was plotted as a function of log10([Inhibitor]), and the IC50^app was determined by fitting the data to the equation: Y = Bottom + (top-bottom)/(1 + 10^Log(IC50) − X) × HillSlope in GraphPad Prism 9.4.1, where Y = % response and X = log10([Inhibitor]). Wells with unusual fluorescence intensities were manually identified and removed from the analysis. […]
# [2] = biological target: T1, Tet(X4); assay: Absorbance activity assay (tigecycline turnover, A400); assay type: biochemical
# Excerpt: We then tested the binding of reported type 1 TDase inhibitors to Tet(X4) (Fig. 3f, ESI Fig. S17 ^†).[33,38,39] […] These compounds gave similar apparent IC50^app values, in accord with trends in IC50 measurements performed by Markley et al.[33] […] We also developed a complementary endpoint activity assay where the turnover of tigecycline by Tet(X4) in a 96-well plate was quenched by addition of 1%v/v formic acid and analysed chromatographically. The peak integrals of tigecycline and its hydroxylated degradation product at 254 nm following UPLC analysis were measured to determine turnover (Fig. 5a). As this method separates components by chromatography, it enables IC50 measurements independent of potential interference from UV-active inhibitors (Fig. 5b). […] The apparent synergy of AZT with tetracyclines against whole cells expressing Tet(X4)[40] is therefore interesting and may derive from the proposed ability of AZT to interfere with DNA synthesis in bacteria,[40,53] or other unidentified mechanisms. […] Note, however, that plumbagin and 2-MNQ are naphthoquinones, which are well-characterised redox-active pan-assay interference (PAINS) moieties.[54]
# 233 Absorbance Activity Assays
# 234 A solution containing 100 mM TAPS (pH 8.5), 2 µM FAD, 10 mM MgCl2 and 100 nM Tet(X4) was
# 235 dispensed into a 384 well µClear plate (Greiner Bio-One), 25 µL per well, using a microplate reagent
# 236 dispenser. A 3-fold, 10-point dilution series of the substrates and inhibitors was made in DMSO with
# 237 the highest concentration of 50 mM, unless otherwise stated, and transferred to the enzyme solution in
# 238 technical quadruplicate using a CyBi-Well (CyBio) liquid-handling robot (1 µL per well). On each plate,
# 239 a column of no enzyme negative controls and no inhibitor (DMSO only) positive controls were
# 240 included. The plate was briefly centrifuged (1000 rpm), then incubated (ambient temperature,15 min).
# 241 A solution containing 100 mM TAPS (pH 8.5), 50 µM tigecycline and 500 µM NADPH was then
# 242 dispensed, with 25 µL per well. The plate was briefly centrifuged (1000 rpm), then transferred to a
# 243 CLARIOstar Plus Microplate reader. The absorbance was monitored at wavelength […] over the
# 244 course of 2 hours (23 flashes / cycle, 180 s cycle time, 41 data points, 25 ° C). The initial rate was
# 245 calculated by measuring the rate of change of A400 during the initial linear regime. Initial rates were
# 246 normalised between positive and negative controls. The normalised % response was plotted as a
# 247 function of log10([Inhibitor]) in molar units, and the IC50 was determined as above. […]
# [3] = biological target: T1, Tet(X4); assay: biochemical
# Experimental: We then tested the binding of reported type 1 TDase inhibitors to Tet(X4) (Fig. 3f, ESI Fig. S17 ^†).[33,38,39] […] We also developed a complementary endpoint activity assay where the turnover of tigecycline by Tet(X4) in a 96-well plate was quenched by addition of 1%v/v formic acid and analysed chromatographically. The peak integrals of tigecycline and its hydroxylated degradation product at 254 nm following UPLC analysis were measured to determine turnover (Fig. 5a).
# […] A 3-fold, 10-point dilution series of the substrates and inhibitors was made in DMSO with a top concentration of 10 mM, unless otherwise stated, and transferred to the enzyme solution using a CyBi-Well liquid-handling robot (CyBio), 1 μL per well. On each plate, a column of no enzyme negative controls and no inhibitor (DMSO only) positive controls were included. The plate was incubated at 30 °C for 15 min. A solution containing 100 mM TAPS (pH 8.5), 40 μM tigecycline and 200 μM NADPH was then dispensed, with 49 μL per well. The plate was incubated at 30 °C for 20 min at 600 rpm. 10 μL of 10%v/v formic acid solution was then dispensed into all wells. Samples were analysed using an ACQUITY H-Class PLUS UPLC instrument (Waters) equipped with a pre-equilibrated ACQUITY BEH C18 column ([…], […], Waters) using a gradient of 1–50%v/v acetonitrile with 0.1%v/v formic acid in water with 0.1%v/v formic acid over 1.83 minutes at a flow rate of 0.5 mL min^−1. Instrument control and data processing were performed using MassLynx V4.1 software. The peaks representing tigecycline and 11a-hydroxy-tigecycline were integrated, used to calculate % conversion and then normalised between positive and negative controls. The normalised % response was plotted as a function of log10[Inhibitor], and the IC50 determined as described above.
# [4] = test system: E. coli TOP10 containing plasmid pBAD-TOPO-Tet(X4); assay: Broth microdilution MIC and checkerboard assay; assay type: cell-based, Escherichia coli; conditions: for MIC: Escherichia coli; for Combination (antibiotic/inhibitor) MIC: inhibitor: inhibitor in combination with tigecycline; for Combination (antibiotic/inhibitor) MIC: inhibitor / Combination (antibiotic/inhibitor) MIC: antibiotic: lowest FICI; for Combination (antibiotic/inhibitor) MIC: antibiotic: tigecycline in combination with the inhibitor; for FICI / Outcome: with tigecycline
# Excerpt: Tet(X4) was sub-cloned from the Tet(X4) pET28b-(+) expression vector via TOPO cloning. The insert was amplified using the taq polymerase with the forward primer 5′- […]-3′ and the reverse primer 5′- […]-3’. Following PCR purification (Thermo Fisher Scientific), the A-tailed PCR product was ligated into the pBAD-TOPO vector using a TOPO cloning kit (Invitrogen) according to the manufacturer's protocol. Following amplification in E. coli NEB5α cells (NEBiolabs), the fidelity of the insert was confirmed by Sanger sequencing (Eurofins). For microbiological experiments, E. coli TOP10 cells were used as the recipient strain. Cells were plated on Mueller-Hinton agar (MHA) plates containing ampicillin at 100 μg mL^−1. The introduction of pBAD-TOPO-Tet(X4) was confirmed by colony PCR. Strains were stored in a freezer at −80 °C in cryopreservation beads.
# MIC tests and checkerboard assays were performed in U-bottom, 96-well microtiter plates using a modified broth microdilution protocol following CLSI guidelines. Cation-adjusted Mueller-Hinton Broth (CAMHB) was prepared fresh on the day of testing.[74] […] Bacterial colonies were selected from an overnight culture on MHA plates (supplemented with 0.2%w/vL-arabinose for E. coli TOP10 containing pBAD-TOPO-Tet(X4)) and were suspended in 0.9% saline solution to achieve a 0.5 McFarland standard. A 100 μL aliquot of this suspension was then diluted into 9.9 mL of CAMHB to yield approximately 1.5 × 10^6 cfu mL^−1. 50 μL of the suspension was then added to each well of a microtiter plates. Plates were incubated at 37 °C for 18 h. At least 2 replicates were conducted for each combination. E. coli TOP10 + pBAD-TOPO-Tet(X4) cells were grown in the absence and presence of 0.2%w/vL-arabinose. Analysis of the MIC and checkerboard results were carried out by visual inspection of growth, with and without resazurin dye, an oxidation–reduction indicator.[75] As a measure of synergy, fractional inhibitory concentration index (FICI) was calculated as FICA + FICB, where FICA and FICB are the MICcombination/MICalone for each agent, respectively.[76] Results were interpreted as follows: synergistic (<0.5), indifferent (1.0–4.0) or antagonistic (>4.0).[64] In cases where the MIC exceeded or was below the measured range, the borderline value was taken to calculate the FIC index.
# [5] = 20 μM tigecycline, 50 nM Tet(X4), 100 μM NADPH, 5 mM MgCl2, 1 μM FAD, 100 mM TAPS pH 8.5, read-out: IC50, UPLC assay
# [6] = IC50app, Tet(X4) (Polarization)
SMILES,"IC50 [3, 5]","IC50 [1, 6]",other results
Cc1c2c(c(O)c3c(O)c(Br)ccc13)C(=O)[C@@]1(O)C(=O)C(C(N)=O)=C(O)[C@@H](N(C)C)[C@@H]1C2 [9-Bromo-anhydrotetracycline],2.7 ± 0.5 µM,–,"IC50 ([1]; read-out: IC50app, FP assay): 0.0404 ± 0.0105 µM; displacement of probe 6 / competitive binding (in words) [1]: clear dose-dependent displacement; IC50 ([2]; 25 μM tigecycline, 50 nM Tet(X4), 250 μM NADPH, 5 mM MgCl2, 1 μM FAD, 100 mM TAPS pH 8.5, read-out: IC50, Absorbance assay): 4.5 ± 0.6 µM"
Cn1cc(C2=C(c3cn(C4CCN(Cc5ccccn5)CC4)c4ccccc34)C(=O)NC2=O)c2ccccc21 [Enzastaurin],> 100 µM,27.8 ± 1.5 µM,–
CCN(CC)CCNC(=O)c1c(C)[nH]c(/C=C2\C(=O)Nc3ccc(F)cc32)c1C [Sunitinib],–,45.6 ± 4 µM,"IC50 ([3]; IC50, UPLC assay, 20 μM tigecycline, 50 nM Tet(X4), 100 μM NADPH, 5 mM MgCl2, 1 μM FAD, 100 mM TAPS pH 8.5): > 100 µM"
CN(C)CCCN1c2ccccc2Sc2ccccc21 [Promazine],> 100 µM,> 100 µM,–
CC(CN(C)C)CN1c2ccccc2S(=O)(=O)c2ccccc21 (stereo not shown) [Oxomemazine],> 100 µM,> 100 µM,–
Cc1cn([C@H]2C[C@H](N=[N+]=[N-])[C@@H](CO)O2)c(=O)[nH]c1=O [Azidothymidine],–,–,"IC50 ([1]; IC50app, FP assay): > 100 µM; displacement of probe 6 / competitive binding (in words) [1]: minimal competitive binding; IC50 [2]: > 1000 µM; inhibition in the absorbance assay (in words) ([2]; AZT up to 1 mM): No inhibition; inhibition in the UPLC assay (in words) [3]: No inhibition; IC50 ([3]; IC50, UPLC assay): > 100 µM"
CN(C)CCCN1c2ccccc2Sc2ccc(Cl)cc21 [Chlorpromazine],110 ± 19 µM,> 100 µM,–
CC(=O)c1ccc2c(c1)N(CCCN1CCN(CCO)CC1)c1ccccc1S2 [Acetophenazine],> 100 µM,> 100 µM,–
c1ccc2c(c1)Nc1ccccc1S2 [Phenothiazine],128 ± 13 µM,> 100 µM,–
O=C(NCc1c(F)cc(F)cc1F)c1cn2c(c(O)c1=O)C(=O)N1[C@H]3CC[C@H](C3)O[C@@H]1C2 [Bictegravir],76 ± 14 µM,54.8 ± 10.6 µM,–
CN(C)CCCN1c2ccccc2Sc2ccc(C(F)(F)F)cc21 [Triflupromazine],–,> 100 µM,"IC50 ([3]; IC50, UPLC assay): 102 ± 29 µM"
COc1ccc2c(c1)N(C[C@H](C)CN(C)C)c1ccccc1S2 [Levomepromazine],> 100 µM,> 100 µM,–
COc1cc(C)c2c(Oc3cccc(C(F)(F)F)c3)c(OC)cc(NC(C)CCCN)c2n1 (stereo not shown) [Tafenoquine],76 ± 2.4 µM,94.9 ± 64.8 µM,"MIC ([4]; read-out: Tet(X) Inhibitor MIC, alone, without L-arabinose induction): 16 µg/mL; MIC ([4]; read-out: Tet(X) inhibitor MIC, alone, induced with 0.2%w/v L-arabinose): 16 to 64 µg/mL; Tet(X) inhibitor MIC ([4]; alone, induced with 0.2%w/v L-arabinose): 16 µg/mL; reduction of the tigecycline MIC ([4]; at high concentrations of inhibitor, 0.2%w/v L-arabinose): 2–4 fold; Combination (antibiotic/inhibitor) MIC: inhibitor ([4]; 0.2%w/v L-arabinose): 4 µg/mL; Combination (antibiotic/inhibitor) MIC: inhibitor ([4]; without L-arabinose): 16 µg/mL; Combination (antibiotic/inhibitor) MIC: antibiotic ([4]; 0.2%w/v L-arabinose): 2 µg/mL; Combination (antibiotic/inhibitor) MIC: antibiotic ([4]; without L-arabinose): 0.25 µg/mL; FICI ([4]; 0.2%w/v L-arabinose): 0.8; Outcome ([4]; 0.2%w/v L-arabinose): Indifferent (indifferent (0.5–4.0)); FICI ([4]; without L-arabinose): 2; Outcome ([4]; without L-arabinose): indifferent (indifferent (0.5-4.0))"
C=CC(=O)Nc1cccc(Oc2nc(Nc3ccc(N4CCN(C)CC4)cc3)nc3ccsc23)c1 [Olmutinib],> 100 µM,17.2 ± 3.4 µM,–
